The record followed here is US9090593B2, “Bicyclic compounds as Pim inhibitors” (AMGEN INC., priority 2010, dated 2015).

Assay [1] has as its target T1, full length recombinant Pim-2 protein (Homo sapiens, UniProt Q9P1W9).
T1 construct: by full length recombinant Pim-1, Pim-2, or Pim-3 protein; hexahistidine tag followed by a thrombin cleavage site (N); made in house; host or cells: Sf9 (baculovirus) or E. coli (pET28)
Nature of the assay: Pim-2 enzyme assay (HTRF, phosphorylation of biotinylated-BAD (S112) peptide). The assay is classed as biochemical. The following applies: enzyme assay, Pim-2; read-out: Pim2_IC50. An outline of the steps: (§1)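 HTRF readout (europium anti-pBAD S112 antibody, streptavidin-APC) of biotin-BAD peptide phosphorylation by recombinant full-length Pim-1 or Pim-2, buffer 60 mM Hepes pH 7.0, 2 mM DTT, 0.05% BSA. Enzymes were His6-tagged, from baculovirus/Sf9 or E. coli.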
For orientation: In TR-FRET formats the signal depends on donor and acceptor labels being close together.

The target in assay [2] is T2, full length recombinant Pim-3 protein (Homo sapiens, UniProt Q86V86).
T2 construct: by full length recombinant Pim-1, Pim-2, or Pim-3 protein; purchased Millipore (UK)
In words: Pim-3 enzyme assay (HTRF, phosphorylation of biotinylated-BAD (S112) peptide). The assay is classed as biochemical. The following applies: read-out: Pim3 IC50. An excerpt: Pim-3 was purchased from Millipore (UK).
The phosphorylation of biotinylated-BAD (S112) peptide by full length recombinant Pim-1, Pim-2, or Pim-3 protein was detected with streptavidin:Allophycocyanin (APC) conjugate and a europium (Eu) labeled antibody directed against phosphorylated-BAD (S112). […] The fluorescence is directly proportional to the amount of phosphorylated BAD peptide present in the reaction.
A reference compound was included on each assay plate in order to validate that plate; on one plate of every assay run, two additional reference compounds were included.
The final buffer conditions were as follows: 60 mM Hepes, pH 7.0, 0.05% BSA, 2 mM DTT. […] The reaction was stopped by the addition of 3 mM EDTA, and fluorescence was measured by an HTRF® Rubystar microplate reader. For each plate, percent of control (POC) values were calculated for each well. Values for the IC50 IP were estimated using a standard 4-parameter logistic model.

Assay [3] deals with T3, full length recombinant Pim-1 protein (Homo sapiens, UniProt P11309).
T3 construct: by full length recombinant Pim-1, Pim-2, or Pim-3 protein; hexahistidine tag followed by a thrombin cleavage site (N); made in house; host or cells: Sf9 (baculovirus) or E. coli (pET28)
In words: Pim-1 enzyme assay (HTRF, phosphorylation of biotinylated-BAD (S112) peptide). In kind it is biochemical. Conditions: enzyme assay, Pim-1; read-out: Pim_1_IC50. An outline of the steps: as §1

Assay [4] has as its target T4, Pim-1 stably transfected into the U2OS human osteogenic sarcoma line (Homo sapiens, UniProt P11309).
T4 construct: expressed in transfected cells; host or cells: U2OS human osteogenic sarcoma line
In words: Pim cell assay, phospho-BAD normalized against total BAD, U2OS stably transfected with Pim-1. In kind it is cell-based. The following applies: U2OS cells stably transfected with Pim-1, phospho-BAD; high dose […]; read-out: Pim1_Cell_IC50. Summed up: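 Read-out is phospho-BAD relative to total BAD, by MSD electrochemiluminescence on lysates, expressed as % phosphoprotein = (2×phospho)/(phospho+total)×100. Engineered U2OS lines carrying stably transfected Pim-1 or Pim-2 received 10-point compound dilutions at 0.3% final DMSO after overnight culture at 37 °C; DMSO-only wells served as high control.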

The structures appear in SMILES notation.

T3 sequence (P11309 whole entry): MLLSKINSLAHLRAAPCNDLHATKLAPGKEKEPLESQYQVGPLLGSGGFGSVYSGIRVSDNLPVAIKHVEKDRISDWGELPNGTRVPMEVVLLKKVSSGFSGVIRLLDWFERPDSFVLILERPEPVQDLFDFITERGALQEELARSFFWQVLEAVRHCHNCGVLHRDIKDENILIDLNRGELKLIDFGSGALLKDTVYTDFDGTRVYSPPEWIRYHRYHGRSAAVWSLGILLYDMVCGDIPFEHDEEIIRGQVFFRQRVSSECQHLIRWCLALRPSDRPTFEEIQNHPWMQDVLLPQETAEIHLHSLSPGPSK
T1 sequence (Q9P1W9 whole entry): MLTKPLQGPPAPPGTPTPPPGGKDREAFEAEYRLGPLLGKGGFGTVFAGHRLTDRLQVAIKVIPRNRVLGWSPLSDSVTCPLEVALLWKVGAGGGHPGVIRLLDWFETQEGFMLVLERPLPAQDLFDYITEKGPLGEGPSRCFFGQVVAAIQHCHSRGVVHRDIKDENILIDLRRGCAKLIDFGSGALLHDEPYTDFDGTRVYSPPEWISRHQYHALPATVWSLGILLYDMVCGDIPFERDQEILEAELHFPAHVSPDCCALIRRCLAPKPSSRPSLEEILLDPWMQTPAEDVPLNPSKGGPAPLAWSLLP
T4 sequence (P11309 whole entry): as the sequence (P11309 whole entry) above

In the case of `Fc1ncc(Cl)cc1-c1ccc2[nH]nc(-c3cncc(O[C@@H]4CCCNC4)n3)c2c1` [Example 117, 5-(5-chloro-2-fluoro-3-pyridinyl)-3-(6-((3R)-3-piperidinyloxy)-2-pyrazinyl)-1H-indazole], the IC50 in assay [1] was found to be 66 nM; in assay [2], 5 nM; in assay [3] it was 18 nM; in assay [4], 761 nM.

`NC1CCN(c2cncc(-c3n[nH]c4ccc(N5CCCCC5=O)cc34)n2)CC1` [Example 91, 1-(3-(6-(4-amino-1-piperidinyl)-2-pyrazinyl)-1H-indazol-5-yl)-2-piperidinone]: the values for the IC50 in assay [1], in assay [2] and in assay [3] were greater than 3000 nM, 926 nM and 629 nM, respectively.

For the compound `Nc1ncc(-c2ccc3[nH]nc(-c4cncc(N5CCC(N)CC5)n4)c3c2)c(NC2CCCC2)n1` [Example 96, 5-(3-(6-(4-amino-1-piperidinyl)-2-pyrazinyl)-1H-indazol-5-yl)-N~4~-cyclopentyl-2,4-pyrimidinediamine], the IC50 was greater than 1000 nM in assay [1], 1120 nM in assay [2] and 848 nM in assay [3].

Take `Cc1ccnc(-c2c[nH]c3ccc(-c4cncc(OC(C)C)n4)cc23)c1` [Example 216, 5-(6-(1-methylethoxy)-2-pyrazinyl)-3-(4-methyl-2-pyridinyl)-1H-indole]: the IC50 in assay [1] came out at 2150 nM; in assay [2] it was 245 nM; in assay [3], 601 nM.

Turning to `O=c1[nH]cncc1-c1ccc2[nH]nc(-c3cncc(O[C@@H]4CCCNC4)n3)c2c1` [Example 125, 5-(3-(6-((3R)-3-piperidinyloxy)-2-pyrazinyl)-1H-indazol-5-yl)-4(3H)-pyrimidinone], the values for the IC50 in assay [1], in assay [2] and in assay [3] were 80 nM, 16 nM and 21 nM, respectively.

Consider `CC(C)Oc1cncc(-c2ccc3[nH]cc(-c4cccc(OC(C)C)n4)c3c2)n1` [Example 226, 5-(6-(1-methylethoxy)-2-pyrazinyl)-3-(6-(1-methylethoxy)-2-pyridinyl)-1H-indole], for which the IC50 in assay [1] was greater than 3000 nM; in assay [2] it was 616 nM; in assay [3], 2200 nM.

For the compound `Fc1cccc(F)c1-c1ccc2[nH]nc(-c3cncc(N4CCCC4)n3)c2c1` [Example 170, 5-(2,6-difluorophenyl)-3-(6-(1-pyrrolidinyl)-2-pyrazinyl)-1H-indazole], the IC50 in assay [1] is greater than 3000 nM; in assay [2] it was 187 nM; in assay [3], 153 nM.

On to `NC1CCN(c2cncc(-c3n[nH]c4ccc(-c5c(F)cccc5F)cc34)c2)CC1` [Example 35, 1-(5-(5-(2,6-difluorophenyl)-1H-indazol-3-yl)pyridin-3-yl)piperidin-4-amine], for which the IC50 was 2300 nM in assay [1], 104 nM in assay [2] and 124 nM in assay [3].

For `COc1cncc(-c2c[nH]c3ccc(-c4cncc(OC(C)C)n4)cc23)n1` [Example 224, 3-(6-methoxy-2-pyrazinyl)-5-(6-(1-methylethoxy)-2-pyrazinyl)-1H-indole], the IC50 in assay [1] was 2270 nM; in assay [2], 126 nM; in assay [3], 216 nM.

Take `CNc1nccc(-c2n[nH]c3ccc(-c4c(F)cccc4F)cc23)n1` [Example 192, 4-(5-(2,6-difluorophenyl)-1H-indazol-3-yl)-N-methyl-2-pyrimidinamine]: the IC50 in assay [1] is 1250 nM; in assay [2], 175 nM; in assay [3], 147 nM.

For the compound `NC1CCN(c2cncc(-c3c[nH]c4ccc(NC(=O)c5ccccc5)cc34)n2)CC1` [Example 235, N-(3-(6-(4-aminopiperidin-1-yl)pyrazin-2-yl)-1H-indol-5-yl)benzamide], the IC50 in assay [1] was 1870 nM; in assay [2], 151 nM; in assay [3], 121 nM.

Consider `CC(C)Nc1nccc(-c2n[nH]c3ccc(-c4c(F)cccc4F)cc23)n1` [Example 193, 4-(5-(2,6-difluorophenyl)-1H-indazol-3-yl)-N-(1-methylethyl)-2-pyrimidinamine], for which the IC50 was 1340 nM in assay [1], 143 nM in assay [2] and 161 nM in assay [3].

On to `c1cc2[nH]nc(-c3cncc(O[C@@H]4CCCNC4)n3)c2cc1-c1ccc2nncn2c1` [Example 145, 6-(3-(6-((3R)-3-piperidinyloxy)-2-pyrazinyl)-1H-indazol-5-yl)[1,2,4]triazolo[4,3-a]pyridine], for which the IC50 in assay [1] turned out to be 496 nM; in assay [2], 80 nM; in assay [3], 23 nM.

Regarding `Nc1cccnc1-c1ccc2[nH]nc(-c3cncc(N4CCC(N)CC4)n3)c2c1` [Example 94, 2-(3-(6-(4-amino-1-piperidinyl)-2-pyrazinyl)-1H-indazol-5-yl)-3-pyridinamine], the IC50 in assay [1] is greater than 1000 nM; in assay [2] it was 118 nM; in assay [3], 86 nM.

For `c1cc2[nH]nc(-c3cncc(O[C@@H]4CCCNC4)n3)c2cc1C1CCCOC1` (stereo partly drawn) [Example 156, 3-(6-((3R)-3-piperidinyloxy)-2-pyrazinyl)-5-(tetrahydro-2H-pyran-3-yl)-1H-indazole], the IC50 was 144 nM in assay [1], 66 nM in assay [2] and 49 nM in assay [3].

As to `C[C@@H]1CCNC[C@H]1Oc1cncc(-c2n[nH]c3ccc(-c4c(F)cccc4F)cc23)n1` [Example 197, 5-(2,6-difluorophenyl)-3-(6-(((3S,4R)-4-methyl-3-piperidinyl)oxy)-2-pyrazinyl)-1H-indazole], the IC50 turned out to be 187 nM in assay [1], 18 nM in assay [2] and 37 nM in assay [3].

Regarding `COc1cncc(-c2ccc3[nH]nc(-c4cncc(OC)c4)c3c2)c1` [Example 29, 3,5-Bis(5-methoxypyridin-3-yl)-1H-indazole], the results for the IC50 in assay [1], in assay [2] and in assay [3] were 1010 nM, 172 nM and 227 nM, respectively.

As to `CC(C)Oc1cncc(-c2ccc3[nH]cc(-c4cccc(N5CCOCC5)n4)c3c2)n1` [Example 220, 5-(6-(1-methylethoxy)-2-pyrazinyl)-3-(6-(4-morpholinyl)-2-pyridinyl)-1H-indole], the IC50 in assay [1] is greater than 3000 nM; in assay [2], 329 nM; in assay [3], 494 nM.

For `O=c1cc(-c2ccc3[nH]nc(-c4cncc(O[C@@H]5CCCNC5)n4)c3c2)c(Cl)c[nH]1` [Example 128, 5-chloro-4-(3-(6-((3R)-3-piperidinyloxy)-2-pyrazinyl)-1H-indazol-5-yl)-2(1H)-pyridinone], the IC50 in assay [1] is 59 nM; in assay [2] it was 30 nM; in assay [3] it was 31 nM.

For `CNc1cncc(-c2n[nH]c3ccc(-c4c(F)cccc4F)cc23)n1` [Example 179, 6-(5-(2,6-difluorophenyl)-1H-indazol-3-yl)-N-methyl-2-pyrazinamine], the IC50 stood at 858 nM in assay [1], 122 nM in assay [2] and 168 nM in assay [3].

With `CC(C)Oc1cncc(-c2ccc3[nH]cc(-c4cccc(N)n4)c3c2)n1` [Example 217, 6-(5-(6-(1-methylethoxy)-2-pyrazinyl)-1H-indol-3-yl)-2-pyridinamine], the IC50 in assay [1] was 2350 nM; in assay [2], 156 nM; in assay [3], 765 nM.

Take `Oc1nccc(-c2ccc3[nH]nc(-c4cncc(O[C@@H]5CCCNC5)n4)c3c2)n1` [Example 155, 4-(3-(6-((3R)-3-piperidinyloxy)-2-pyrazinyl)-1H-indazol-5-yl)-2-pyrimidinol]: the IC50 in assay [1] came to 108 nM; in assay [2], 27 nM; in assay [3] it was 36 nM.

Regarding `c1cc(-c2ccc3[nH]nc(-c4cncc(O[C@@H]5CCCNC5)n4)c3c2)nc(C2CC2)c1` [Example 136, 5-(6-cyclopropyl-2-pyridinyl)-3-(6-((3R)-3-piperidinyloxy)-2-pyrazinyl)-1H-indazole], the values for the IC50 in assay [1], in assay [2] and in assay [3] were 164 nM, 15 nM and 30 nM, respectively.

As for `Cc1c(N)cccc1-c1ccc2[nH]nc(-c3cncc(N4CCC(N)CC4)n3)c2c1` [Example 103, 1-(6-(5-(3-amino-2-methylphenyl)-1H-indazol-3-yl)-2-pyrazinyl)-4-piperidinamine], the IC50 in assay [1] is 224 nM; in assay [2], 68 nM; in assay [3], 34 nM.

Turning to `Cc1ccc(-c2c[nH]c3ccc(-c4cncc(OC(C)C)n4)cc23)nc1` [Example 219, 5-(6-(1-methylethoxy)-2-pyrazinyl)-3-(5-methyl-2-pyridinyl)-1H-indole], the IC50 is greater than 3000 nM in assay [1], 692 nM in assay [2] and 1130 nM in assay [3].
